Holding throughout (type): biochemical
The target in one assay is T1, Tankyrase-1 (Homo sapiens, UniProt O95271).
T1 construct: GST-tagged Tankyrase-1 (1023-1327 aa)
Briefly: Tankyrase 1 autoparsylation assay (HTRF enzyme assay). To be noted: GST-tagged Tankyrase-1 (1023-1327 aa). The procedure: (§1) Biochemical activity testing of Tankyrase 1 and 2: Autoparsylation assay
(§2) The autoparsylation assay is run in two steps: the enzymatic reaction in which GST-tagged Tankyrase-1, resp Tankyrase-2 transferred biotinylated ADP-ribose to itself from biotinylated NAD as co-substrate and the detection reaction where a time resolved FRET between cryptate labelled anti-GST bound to the GST tag of the enzyme and Xlent® labelled-streptavidin bound the biotin-parsylation residue is analysed. The autoparsylation activity was detectable directly via the increase in HTRF signal.
(§3) The autoparsylation assay is performed as 384-well HTRF® (Cisbio, Codolet, France) assay format in Greiner low volume nb 384-well microtiter plates and is used for high throughput screen. 250 nM GST-tagged Tankyrase-1 (1023-1327 aa), respectively about 250 nM GST-tagged Tankyrase-2 (873-1166 aa) and 5 μM bio-NAD (Biolog, Life science Inst., Bremen, Germany) as co-substrate are incubated in a total volume of 5 μl (50 mM HEPES, 4 mM Mg-chloride, 0.05% Pluronic F-68, 1.4 mM DTT, 0.5% DMSO, pH 7.7) in the absence or presence of the test compound (10 dilution concentrations) for 90 min at 30° C. The reaction is stopped by the addition of 1 μl 50 mM EDTA solution. 2 μl of the detection solution (1.6 μM SA-Xlent® (Cisbio, Codolet, France), 7.4 nM Anti-GST-K® (Eu-labelled anti-GST, Cisbio, Codolet, France) in 50 mM HEPES, 800 mM KF, 0.1% BSA, 20 mM EDTA, 0.1% CHAPS, pH 7.0) are added. After 1 h incubation at room temperature the HTRF is measured with an Envision multimode reader (Perkin Elmer LAS Germany GmbH) at excitation wavelength 340 nm (laser mode) and emission wavelengths 615 nm and 665 nm. The ratio of the emission signals is determined. The full value used is the inhibitor-free reaction. The pharmacological zero value used is XAV-939 (Tocris) in a final concentration of 5 μM. The inhibitory values (IC50) are determined using either the program Symyx Assay Explorer® or Condosseo® from GeneData.
For orientation: In TR-FRET formats the signal depends on donor and acceptor labels being close together.

The target in the next assay is T2, TNKS1 (Homo sapiens, UniProt O95271).
T2 construct: GST-tagged Tnks-1 (1023-1327 aa, prepared in-house); made in house
The assay is described as follows: TNKS1 activity ELISA (autoparsylation assay). To be noted: GST-tagged Tnks-1 (1023-1327 aa), luminescence. The method, then:
(§4) Description of the TNKS1 and TNKS2 ELISA Assay
(§5) Biochemical activity testing of TNKS 1 and 2: activity ELISA (Autoparsylation assay)
(§6) For analysis of autoparsylation activity of TNKS 1 and 2 an activity ELISA iss performed: In the first step GST tagged TNKS is captured on a Glutathione coated plate. Then the activity assay with biotinylated NAD is performed in the absence/presence of the compounds. During the enzymatic reaction GST tagged TNKS transfers biotinylated ADP-ribose to itself from biotinylated NAD as co-substrate. For the detection streptavidin-HRP conjugate is added that binds to the biotinylated TNKS and is thereby captured to the plates. The amount of biotinylated resp. autoparsylated TNKS is detected with a luminescence substrate for HRP. The level of the luminescence signal correlats directly with the amount of autoparsylated TNKS and therefore with activity of TNKS.
(§7) The acitivity ELISA is performed in 384 well Glutathione coated microtiter plates (Express capture Glutathione coated plate, Biocat, Heidelberg, Germany). The plates are pre-equilibrated with PBS. Then the plates are incubated with 50 μl 20 ng/well GST-tagged Tnks-1 (1023-1327 aa, prepared in-house), respectively GST-tagged Tnks-2 (873-1166 aa, prepared in-house) in assay buffer (50 mM HEPES, 4 mM Mg-chloride, 0.05% Pluronic F-68, 2 mM DTT, pH 7.7) overnight at 4° C. The plates are washed 3 times with PBS-Tween-20. The wells are blocked by incubation at room temperature for 20 minutes with 50 μl blocking buffer (PBS, 0.05% Tween-20, 0.5% BSA). Afterwards the plates are washed 3 times with PBS-Tween-20. The enzymatic reaction is performed in 50 μl reaction solution (50 mM HEPES, 4 mM Mg-chloride, 0.05% Pluronic F-68, 1.4 mM DTT, 0.5% DMSO, pH 7.7) with10 μM bio-NAD (Biolog, Life science Inst., Bremen, Germany) as co-substrate in the absence or presence of the test compound (10 dilution concentrations) for 1 hour at 30° C. The reaction is stopped by 3 times washing with PBS-Tween-20. For the detection 50 μl of 20 ng/μl Streptavidin, HRP conjugate (MoBiTec, Göttingen, Germany) in PBS/0.05% Tween-20/0.01% BSA are added and the plates are incubated for 30 minutes at room temperature. After three times washing with PBS-Tween-20 50 μl of SuperSignal ELISA Femto Maximum sensitivity substrate solution (ThermoFisherScientific (Pierce), Bonn, Germany) are added. Following a 1 minute incubation at room temperature luminescence signals are measured with an Envision multimode reader (Perkin Elmer LAS Germany GmbH) at 700 nm. The full value used is the inhibitor-free reaction. The pharmacological zero value used is XAV-939 (Tocris) in a final concentration of 5 μM. The inhibitory values (IC50) are determined using either the program Symyx Assay Explorer® or Condosseo® from GeneData.

The target of a further assay is T3, TNKS2 (Homo sapiens, UniProt Q9H2K2).
T3 construct: GST-tagged Tnks-2 (873-1166 aa, prepared in-house); made in house
Briefly: TNKS2 activity ELISA (autoparsylation assay). The following applies: GST-tagged Tnks-2 (873-1166 aa), luminescence. The procedure:
as §4, §5, §6, §7
(In general: An ELISA detects its analyte on a solid surface through an enzyme-linked reagent.)

The target in a further assay is T4, Tankyrase-2 (Homo sapiens, UniProt Q9H2K2).
T4 construct: GST-tagged Tankyrase-2 (873-1166 aa)
The assay is described as follows: Tankyrase 2 autoparsylation assay (HTRF enzyme assay). To be noted: GST-tagged Tankyrase-2 (873-1166 aa). The method, then: as §1, §2, §3

T2 sequence (O95271 1023-1327): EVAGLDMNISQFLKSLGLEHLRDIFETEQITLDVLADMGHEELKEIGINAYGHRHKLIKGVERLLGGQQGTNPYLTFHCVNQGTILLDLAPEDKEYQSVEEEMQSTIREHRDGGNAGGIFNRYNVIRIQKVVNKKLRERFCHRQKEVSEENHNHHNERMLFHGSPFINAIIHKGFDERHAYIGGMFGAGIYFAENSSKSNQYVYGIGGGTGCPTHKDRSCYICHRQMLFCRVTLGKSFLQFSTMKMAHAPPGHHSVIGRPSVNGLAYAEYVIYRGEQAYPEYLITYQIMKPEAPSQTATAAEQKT
T1 sequence (O95271 1023-1327): as above
T4 sequence (Q9H2K2 873-1166): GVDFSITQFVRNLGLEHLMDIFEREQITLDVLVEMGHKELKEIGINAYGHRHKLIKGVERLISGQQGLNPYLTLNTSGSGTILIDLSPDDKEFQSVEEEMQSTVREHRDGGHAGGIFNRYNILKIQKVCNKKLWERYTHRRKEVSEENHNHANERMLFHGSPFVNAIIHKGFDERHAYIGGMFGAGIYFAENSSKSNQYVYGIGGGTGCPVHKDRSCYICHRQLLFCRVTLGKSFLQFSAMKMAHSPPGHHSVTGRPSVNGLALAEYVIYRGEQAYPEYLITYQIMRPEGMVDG
T3 sequence (Q9H2K2 873-1166): as above

Broadly, the IC50 is the point on the concentration scale where inhibition reaches its midpoint. As for `CC(C)(O)c1ccc(-c2cc3ccccc3c(=O)[nH]2)cc1` [Compound A3, 3-[4-(1-hydroxy-1-methyl-ethyl)-phenyl]-2H-isoquinolin-1-one], the concentration for half-maximal inhibition (IC50) against Tankyrase-1, on TNKS1, on TNKS2 and at Tankyrase-2 was less than 300 nM throughout.

As for `CC(C)(O)c1ccc(-c2cc3cc(F)ccc3c(=O)[nH]2)cc1` [Compound A5, 6-fluoro-3-[4-(1-hydroxy-1-methyl-ethyl)-phenyl]-2H-isoquinolin-1-one], the half-maximal inhibitory concentration (IC50) was less than 300 nM on Tankyrase-1, less than 300 nM against TNKS1, less than 300 nM against TNKS2 and 300 to 3000 nM at Tankyrase-2.

For `CC(C)(O)c1ccc(-c2cc3ccc(F)cc3c(=O)[nH]2)cc1` [Compound A6, 7-fluoro-3-[4-(1-hydroxy-1-methyl-ethyl)-phenyl]-2H-isoquinolin-1-one], the half-maximal inhibitory concentration (IC50) at Tankyrase-1, at TNKS1, on TNKS2 and against Tankyrase-2 was less than 300 nM in each case.

As to `Cc1ccc(-c2cc3ccc(F)cc3c(=O)[nH]2)cc1` [Compound A9, 7-fluoro-3-p-tolyl-2H-isoquinolin-1-one], the 50% inhibitory concentration (IC50) at Tankyrase-1, on TNKS1, at TNKS2 and against Tankyrase-2 was less than 300 nM each time.

In the case of `Cc1ccc(-c2cc3cc(F)ccc3c(=O)[nH]2)cc1` [Compound A10, 6-fluoro-3-p-tolyl-2H-isoquinolin-1-one], the concentration for half-maximal inhibition (IC50) against Tankyrase-1 was 300 to 3000 nM; at TNKS1, less than 300 nM; at TNKS2, less than 300 nM; on Tankyrase-2 it was 300 to 3000 nM.

For `Cc1ccc(-c2cc3cccc(F)c3c(=O)[nH]2)cc1` [Compound A11, 8-fluoro-3-p-tolyl-2H-isoquinolin-1-one], the half-inhibitory concentration (IC50) on Tankyrase-1, at TNKS1, against TNKS2 and at Tankyrase-2 was less than 300 nM in each case.

`Cc1ccc(-c2cc3c(F)cccc3c(=O)[nH]2)cc1` [Compound A12, 5-fluoro-3-p-tolyl-2H-isoquinolin-1-one]: the IC50 against Tankyrase-1 was less than 300 nM; at TNKS1 it was less than 300 nM; against TNKS2 it was less than 300 nM; at Tankyrase-2, 300 to 3000 nM.

Consider `Cn1cc(-c2ccc(-c3cc4ccncc4c(=O)[nH]3)cc2)cn1` [Compound A14, 3-[4-(1-Methyl-1H-pyrazol-4-yl)-phenyl]-2H-[2,7]naphthyridin-1-one], for which the concentration for half-maximal inhibition (IC50) at Tankyrase-1 is less than 300 nM; against TNKS1, less than 300 nM; at TNKS2, less than 300 nM; on Tankyrase-2, 300 to 3000 nM.

For the molecule `COC(C)(C)c1ccc(-c2cc3ccccc3c(=O)[nH]2)cc1` [Compound A15, 3-[4-(1-methoxy-1-methyl-ethyl)-phenyl]-2H-isoquinolin-1-one], the 50% inhibitory concentration (IC50) against Tankyrase-1 was less than 300 nM; against TNKS1, less than 300 nM; on TNKS2 it was less than 300 nM; against Tankyrase-2, 300 to 3000 nM.

Turning to `CC(C)(OCCO)c1ccc(-c2cc3ccc(F)cc3c(=O)[nH]2)cc1` [Compound A16, 7-fluoro-3-{4-[1-(2-hydroxy-ethoxy)-1-methyl-ethyl]-phenyl}-2H-isoquinolin-1-one], the half-inhibitory concentration (IC50) on Tankyrase-1, at TNKS1, against TNKS2 and against Tankyrase-2 was less than 300 nM throughout.

As for `C=C(C)c1ccc(-c2cc3ccc(F)cc3c(=O)[nH]2)cc1` [Compound A17, 7-fluoro-3-(4-isopropenyl-phenyl)-2H-isoquinolin-1-one], the IC50 against Tankyrase-1 is less than 300 nM; on TNKS1, less than 300 nM; at TNKS2, less than 300 nM; on Tankyrase-2, 300 to 3000 nM.

Consider `Cn1cc(-c2ccc(-c3cc4ccc(F)cc4c(=O)[nH]3)cc2)cn1` [Compound A18, 7-fluoro-3-[4-(1-methyl-1H-pyrazol-4-yl)-phenyl]-2H-isoquinolin-1-one], for which the IC50 on Tankyrase-1 is less than 300 nM; against TNKS1 it was less than 300 nM; at TNKS2 it was less than 300 nM; on Tankyrase-2, 300 to 3000 nM.

Take `CC(C)(N)c1ccc(-c2cc3ccc(F)cc3c(=O)[nH]2)cc1` [Compound A20, 3-[4-(1-amino-1-methyl-ethyl)phenyl]-7-fluoro-2H-isoquinolin-1-one]: the IC50 on Tankyrase-1, against TNKS1, at TNKS2 and on Tankyrase-2 was less than 300 nM in each case.

Consider `CC(C)(O)c1ccc(-c2cc3cnccc3c(=O)[nH]2)cc1` [Compound A23, 3-[4-(1-hydroxy-1-methyl-ethyl)phenyl]-2H-2,6-naphthyridin-1-one], for which the IC50 against Tankyrase-1, at TNKS1, on TNKS2 and at Tankyrase-2 was less than 300 nM in each case.

On to `CC(C)(O)c1ccc(-c2cc3ccncc3c(=O)[nH]2)cc1` [Compound A24, 3-[4-(1-hydroxy-1-methyl-ethyl)phenyl]-2H-2,7-naphthyridin-1-one], for which the half-inhibitory concentration (IC50) on Tankyrase-1, against TNKS1, against TNKS2 and on Tankyrase-2 was less than 300 nM in each case.

Consider `CC(C)(O)c1ccc(-c2cc3cccc(F)c3c(=O)[nH]2)cc1` [Compound A27, 8-fluoro-3-[4-(1-hydroxy-1-methyl-ethyl)phenyl]-2H-isoquinolin-1-one], for which the IC50 on Tankyrase-1, against TNKS1, on TNKS2 and at Tankyrase-2 was less than 300 nM each time.

As to `CC(C)(O)c1ccc(-c2cc3c(F)cccc3c(=O)[nH]2)cc1` [Compound A28, 5-fluoro-3-[4-(1-hydroxy-1-methyl-ethyl)phenyl]-2H-isoquinolin-1-one], the 50% inhibitory concentration (IC50) on Tankyrase-1, on TNKS1, against TNKS2 and against Tankyrase-2 was less than 300 nM throughout.

Take `Cc1ccc(-c2cc3c(C)cccc3c(=O)[nH]2)cc1` [Compound A29, 5-methyl-3-(p-tolyl)-2H-isoquinolin-1-one]: the IC50 on Tankyrase-1 was less than 300 nM; against TNKS1, less than 300 nM; against TNKS2, less than 300 nM; against Tankyrase-2 it was 300 to 3000 nM.

Consider `CC(C)(O)c1ccc(-c2cc3c(F)cc(F)cc3c(=O)[nH]2)cc1` [Compound A33, 5,7-difluoro-3-[4-(1-hydroxy-1-methyl-ethyl)-phenyl]-2H-isoquinolin-1-one], for which the IC50 is less than 300 nM against Tankyrase-1, less than 300 nM against TNKS1, less than 300 nM on TNKS2 and 300 to 3000 nM against Tankyrase-2.
